Activity calls are given as the source filed them. The rule behind the calls is not given here.
Tested on: CCRIS mutagenicity, Ames/micronucleus/aberration tests
Assay: CCRIS mutagenicity studies
[1] = Test System: AMES SALMONELLA TYPHIMURIUM, Strain/Indicator: TA98, Metabolic Activation: NONE, Method: PREINCUBATION
[2] = Test System: AMES SALMONELLA TYPHIMURIUM, Strain/Indicator: TA100, Metabolic Activation: NONE, Method: PREINCUBATION
[3] = Test System: AMES SALMONELLA TYPHIMURIUM, Strain/Indicator: TA100, Metabolic Activation: NONE, Method: STANDARD PLATE
[4] = Test System: AMES SALMONELLA TYPHIMURIUM, Strain/Indicator: TA98, Metabolic Activation: NONE, Method: STANDARD PLATE
[5] = Test System: AMES SALMONELLA TYPHIMURIUM, Strain/Indicator: TA98, Metabolic Activation: RAT, LIVER, S-9, AROCLOR 1254, Method: STANDARD PLATE
[6] = Test System: AMES SALMONELLA TYPHIMURIUM, Strain/Indicator: TA100, Metabolic Activation: RAT, LIVER, S-9, AROCLOR 1254, Method: STANDARD PLATE

With `COC(C)=O` the mutagenic call (Test System: AMES SALMONELLA TYPHIMURIUM, Strain/Indicator: TA97, Metabolic Activation: HAMSTER, LIVER, S-9, AROCLOR 1254 (10 OR 30%), Method: PREINCUBATION) was “inactive; negative”, the mutagenic call (Test System: AMES SALMONELLA TYPHIMURIUM, Strain/Indicator: TA97, Metabolic Activation: NONE, Method: PREINCUBATION) was “inactive; negative” and the mutagenic call (Test System: AMES SALMONELLA TYPHIMURIUM, Strain/Indicator: TA97, Metabolic Activation: RAT, LIVER, S-9, AROCLOR 1254 (10 OR 30%), Method: PREINCUBATION) was “inactive; negative”. For the same compound, the mutagenic call (Test System: AMES SALMONELLA TYPHIMURIUM, Strain/Indicator: TA98, Metabolic Activation: HAMSTER, LIVER, S-9, AROCLOR 1254 (10 OR 30%), Method: PREINCUBATION) was “inactive; negative”, the mutagenic call [1] was “inactive; negative” and the mutagenic call (Test System: AMES SALMONELLA TYPHIMURIUM, Strain/Indicator: TA98, Metabolic Activation: RAT, LIVER, S-9, AROCLOR 1254 (10 OR 30%), Method: PREINCUBATION) was “inactive; negative”. For the same compound, the mutagenic call (Test System: AMES SALMONELLA TYPHIMURIUM, Strain/Indicator: TA100, Metabolic Activation: HAMSTER, LIVER, S-9, AROCLOR 1254 (10 OR 30%), Method: PREINCUBATION) was “inactive; negative”, the mutagenic call [2] was “inactive; negative” and the mutagenic call (Test System: AMES SALMONELLA TYPHIMURIUM, Strain/Indicator: TA100, Metabolic Activation: RAT, LIVER, S-9, AROCLOR 1254 (10 OR 30%), Method: PREINCUBATION) was “inactive; negative”. For the same compound, the mutagenic call (Test System: AMES SALMONELLA TYPHIMURIUM, Strain/Indicator: TA1535, Metabolic Activation: HAMSTER, LIVER, S-9, AROCLOR 1254 (10 OR 30%), Method: PREINCUBATION) was “inactive; negative”, the mutagenic call (Test System: AMES SALMONELLA TYPHIMURIUM, Strain/Indicator: TA1535, Metabolic Activation: NONE, Method: PREINCUBATION) was “inactive; negative” and the mutagenic call (Test System: AMES SALMONELLA TYPHIMURIUM, Strain/Indicator: TA1535, Metabolic Activation: RAT, LIVER, S-9, AROCLOR 1254 (10 OR 30%), Method: PREINCUBATION) was “inactive; negative”. For the same compound, the mutagenic call (Test System: AMES SALMONELLA TYPHIMURIUM, Strain/Indicator: TA1537, Metabolic Activation: HAMSTER, LIVER, S-9, AROCLOR 1254 (30%), Method: PREINCUBATION) was “inactive; negative”, the mutagenic call (Test System: AMES SALMONELLA TYPHIMURIUM, Strain/Indicator: TA1537, Metabolic Activation: NONE, Method: PREINCUBATION) was “inactive; negative” and the mutagenic call (Test System: AMES SALMONELLA TYPHIMURIUM, Strain/Indicator: TA1537, Metabolic Activation: RAT, LIVER, S-9, AROCLOR 1254 (30%), Method: PREINCUBATION) was “inactive; negative”.

For `C1=CC2OC2c2ncccc21` (stereo unspecified), the mutagenic call [3] was “inactive; negative” and the mutagenic call (Test System: AMES SALMONELLA TYPHIMURIUM, Strain/Indicator: TA100, Metabolic Activation: RAT, LIVER, S-9, AROCLOR 1254 (10% OR 20%), Method: STANDARD PLATE) was “active; positive”.

For `COC1=CC(=O)c2c(ncc3c2[nH]c2ccncc23)C1=O`, the mutagenic call (Test System: AMES SALMONELLA TYPHIMURIUM, Strain/Indicator: TA97A, Metabolic Activation: NONE, Method: STANDARD PLATE) was “active; positive”, the mutagenic call (Test System: AMES SALMONELLA TYPHIMURIUM, Strain/Indicator: TA97A, Metabolic Activation: RAT LIVER S-9, AROCLOR 1254, Method: STANDARD PLATE) was “inactive; negative” and the mutagenic call [4] was “active; positive”. For the same compound, the mutagenic call (Test System: AMES SALMONELLA TYPHIMURIUM, Strain/Indicator: TA98, Metabolic Activation: RAT LIVER S-9, AROCLOR 1254, Method: STANDARD PLATE) was “active; positive”, the mutagenic call [3] was “active; positive” and the mutagenic call (Test System: AMES SALMONELLA TYPHIMURIUM, Strain/Indicator: TA100, Metabolic Activation: RAT LIVER S-9, AROCLOR 1254, Method: STANDARD PLATE) was “active; positive”. The mutagenic call (Test System: AMES SALMONELLA TYPHIMURIUM, Strain/Indicator: TA102, Metabolic Activation: NONE, Method: STANDARD PLATE) was “active; positive” and the mutagenic call (Test System: AMES SALMONELLA TYPHIMURIUM, Strain/Indicator: TA102, Metabolic Activation: RAT LIVER S-9, AROCLOR 1254, Method: STANDARD PLATE) was “active; positive”.

With `BrCc1ccc2c3c(cccc13)-c1ccccc1-2` the mutagenic call [4] was “active; positive” and the mutagenic call [3] was “active; positive”.

With `NCCN1CCNCC1` the mutagenic call [1] was “inactive; negative”, the mutagenic call [4] was “inactive; negative” and the mutagenic call [5] was “inactive; negative”. For the same compound, the mutagenic call (Test System: AMES SALMONELLA TYPHIMURIUM, Strain/Indicator: TA98, Metabolic Activation: RAT, LIVER, S-9, PCB, Method: PREINCUBATION) was “inactive; negative”, the mutagenic call [2] was “inactive; negative” and the mutagenic call [3] was “inactive; negative”. The mutagenic call [6] was “inactive; negative”, the mutagenic call (Test System: AMES SALMONELLA TYPHIMURIUM, Strain/Indicator: TA100, Metabolic Activation: RAT, LIVER, S-9, PCB, Method: PREINCUBATION) was “inactive; negative” and the mutagenic call (Test System: AMES SALMONELLA TYPHIMURIUM, Strain/Indicator: TA1535, Metabolic Activation: NONE, Method: STANDARD PLATE) was “inactive; negative”. For the same compound, the mutagenic call (Test System: AMES SALMONELLA TYPHIMURIUM, Strain/Indicator: TA1535, Metabolic Activation: RAT, LIVER, S-9, AROCLOR 1254, Method: STANDARD PLATE) was “inactive; negative”, the mutagenic call (Test System: AMES SALMONELLA TYPHIMURIUM, Strain/Indicator: TA1537, Metabolic Activation: NONE, Method: STANDARD PLATE) was “inactive; negative” and the mutagenic call (Test System: AMES SALMONELLA TYPHIMURIUM, Strain/Indicator: TA1537, Metabolic Activation: RAT, LIVER, S-9, AROCLOR 1254, Method: STANDARD PLATE) was “inactive; negative”. The mutagenic call (Test System: AMES SALMONELLA TYPHIMURIUM, Strain/Indicator: TA1538, Metabolic Activation: NONE, Method: STANDARD PLATE) was “inactive; negative”, the mutagenic call (Test System: AMES SALMONELLA TYPHIMURIUM, Strain/Indicator: TA1538, Metabolic Activation: RAT, LIVER, S-9, AROCLOR 1254, Method: STANDARD PLATE) was “inactive; negative” and the mutagenic call (Test System: UDS RAT HEPATOCYTES, Strain/Indicator: THY INCORP, Metabolic Activation: NONE, Method: SCINTILLATION SPECTROMETRY) was “inactive; negative”.

For `CC(C)(C)NC[C@H](O)COc1nsnc1N1CCOCC1`, the mutagenic call [4] was “inactive; negative”, the mutagenic call [5] was “inactive; negative” and the mutagenic call [3] was “inactive; negative”. For the same compound, the mutagenic call [6] was “inactive; negative”.

Reference: PubChem BioAssay AID1259407 (Chemical Carcinogenesis Research Information System (CCRIS), 2018)
